From ChEMBL document CHEMBL3745599, “The anti-tumor activity and mechanism of alkaloids from Aconitum szechenyianum Gay” (Bioorg Med Chem Lett, 2016)
Activity calls are given as the source filed them. The calls are words filed in the database; no cut-off is given here.

Key:
[1] = target: T1, MAP kinase p38 (Homo sapiens) (UniProt O15264+Q15759+Q16539+P53778); experiment: Activation of p38 in human A549 cells assessed as upregulation of cleaved caspase-9 level by Western blot analysis; type: cell-based
A549 [2] = experiment: Upregulation of phosphorylated p38 expression in human A549 cells by Western blot analysis; type: functional, cell-based
A549 [3] = experiment: Induction of apoptosis in human A549 cells after 24 hrs by inverted phase contrast microscopic analysis; type: functional, cell-based
[4] = target: T1, MAP kinase p38 (Homo sapiens); experiment: Activation of p38 in human A549 cells assessed as upregulation of cytochrome c expression in cytosol by Western blot analysis; type: cell-based
A549 [5] = experiment: Induction of apoptosis in human A549 cells assessed as nuclear fragmentation at 100 to 800 ug/ml after 24 hrs by Hoechst 33258 staining-based fluorescence microscopic analysis; type: functional, cell-based
[6] = Cytotoxicity against HEK293A cells assessed as cell viability at 100 to 800 ug/ml after 44 hrs by MTT assay; type: cell-based; conditions: human, hek293-a
A549 [7] = experiment: Induction of apoptosis in human A549 cells assessed as change in cytoplasmic vacuole at 100 to 800 ug/ml after 24 hrs by inverted phase contrast microscopic analysis; type: functional, cell-based
A549 [8] = experiment: Induction of apoptosis in human A549 cells assessed as appearance of loosely arranged cells at 100 to 800 ug/ml after 24 hrs by inverted phase contrast microscopic analysis; type: functional, cell-based
[9] = target: T1, MAP kinase p38 (Homo sapiens); experiment: Activation of p38 in human A549 cells assessed as upregulation of TNF-R1 expression by Western blot analysis; type: cell-based
A549 [10] = experiment: Antiproliferative activity against human A549 cells assessed as cell viability at 100 to 1600 ug/ml after 44 hrs by MTT assay; type: functional, cell-based
[11] = target: T1, MAP kinase p38 (Homo sapiens); experiment: Activation of p38 in human A549 cells assessed as downregulation of procaspase-8 level by Western blot analysis; type: cell-based
A549 [12] = experiment: Induction of apoptosis in human A549 cells assessed as condensed chromatin at 100 to 800 ug/ml after 24 hrs by Hoechst 33258 staining-based fluorescence microscopic analysis; type: functional, cell-based
[13] = target: T1, MAP kinase p38 (Homo sapiens); experiment: Activation of p38 in human A549 cells assessed as upregulation of Bax expression by Western blot analysis; type: cell-based
A549 [14] = experiment: Upregulation of p38 expression in human A549 cells by Western blot analysis; type: functional, cell-based
[15] = target: T1, MAP kinase p38 (Homo sapiens); experiment: Activation of p38 in human A549 cells assessed as upregulation of DR5 expression by Western blot analysis; type: cell-based
[16] = target: T1, MAP kinase p38 (Homo sapiens); experiment: Activation of p38 in human A549 cells assessed as increase in Bax to Bcl2 ratio by Western blot analysis; type: cell-based
A549 [17] = experiment: Induction of apoptosis in human A549 cells assessed as change from fusiform shape to round shape cell at 100 to 800 ug/ml after 24 hrs by inverted phase contrast microscopic analysis; type: functional, cell-based
[18] = target: T1, MAP kinase p38 (Homo sapiens); experiment: Activation of p38 in human A549 cells assessed as downregulation of cytochrome c expression in mitochondria by Western blot analysis
[19] = target: T1, MAP kinase p38 (Homo sapiens); experiment: Activation of p38 in human A549 cells assessed as downregulation of Bcl2 expression at 100 to 800 ug/ml by Western blot analysis; type: cell-based
A549 [20] = experiment: Induction of apoptosis in human A549 cells assessed as cell shrinkage at 100 to 800 ug/ml after 24 hrs by inverted phase contrast microscopic analysis; type: functional, cell-based
[21] = Cytotoxicity against HEK293A cells assessed as cell viability at 1600 ug/ml after 44 hrs by MTT assay; type: cell-based; conditions: human, hek293-a
A549 [22] = experiment: Induction of apoptosis in human A549 cells assessed as loss in mitochondrial membrane potential after 24 hrs by JC-1 dye-based fluorescence microscopic analysis; type: functional, cell-based
HeLa = experiment: Antiproliferative activity against human HeLa cells assessed as cell viability at 100 to 1600 ug/ml after 44 hrs by MTT assay; type: functional, cell-based
HepG2 = experiment: Antiproliferative activity against human HepG2 cells assessed as cell viability at 100 to 1600 ug/ml after 44 hrs by MTT assay; type: functional, cell-based
[23] = target: T1, MAP kinase p38 (Homo sapiens); experiment: Activation of p38 in human A549 cells assessed as downregulation of procaspase-3 level by Western blot analysis; type: cell-based

## C=C1[C@H]2C[C@@]3([C@@H]1O)[C@@H](CC2=O)[C@@]12C4[C@@H]3C[C@@H]1[C@@](C)(CC[C@@H]2O)CN4CC
[1]
  Activity: Active
A549 [2]
  Activity: Dose-dependent effect
A549 [3]
  Activity: Dose-dependent effect
[4]
  Activity: Dose-dependent effect
A549 [5]
  Activity: Active
[6]
  Activity: Non-toxic
A549 [7]
  Activity: Active
A549 [8]
  Activity: Active
[9]
  Activity: Dose-dependent effect
A549 [10]
  Activity: Active
[11]
  Activity: Dose-dependent effect
A549 [12]
  Activity: Active
[13]
  Activity: Dose-dependent effect
A549 [14]
  Activity: Dose-dependent effect
[15]
  Activity: Dose-dependent effect
[16]
  Activity: Dose-dependent effect
A549 [17]
  Activity: Active
[18]
  Activity: Dose-dependent effect
[19]
  Activity: Active
A549 [20]
  Activity: Active
[21]
  Activity: Toxic
A549 [22]
  Activity: Dose-dependent effect
HeLa
  Activity: Active
HepG2
  Activity: Active
[23]
  Activity: Dose-dependent effect

## CCN1C[C@@]2(COC)[C@H]3[C@@H](OC)[C@H]4C1[C@]3([C@@H](OC)C[C@H]2OC(C)=O)[C@@H]1C[C@@]2(O)[C@H](OC(=O)c3ccccc3)[C@@H]1[C@]4(OC(C)=O)[C@@H](O)[C@@H]2OC
[1]
  Activity: Active
A549 [2]
  Activity: Dose-dependent effect
A549 [3]
  Activity: Dose-dependent effect
[4]
  Activity: Dose-dependent effect
A549 [5]
  Activity: Active
[6]
  Activity: Non-toxic
A549 [7]
  Activity: Active
A549 [8]
  Activity: Active
[9]
  Activity: Dose-dependent effect
A549 [10]
  Activity: Active
[11]
  Activity: Dose-dependent effect
A549 [12]
  Activity: Active
[13]
  Activity: Dose-dependent effect
A549 [14]
  Activity: Dose-dependent effect
[15]
  Activity: Dose-dependent effect
[16]
  Activity: Dose-dependent effect
A549 [17]
  Activity: Active
[18]
  Activity: Dose-dependent effect
[19]
  Activity: Active
A549 [20]
  Activity: Active
[21]
  Activity: Toxic
A549 [22]
  Activity: Dose-dependent effect
HeLa
  Activity: Active
HepG2
  Activity: Active
[23]
  Activity: Dose-dependent effect

## CCN1C[C@]2(COC)[C@H](O)C[C@@H](OC)[C@@]34[C@@H]5C[C@@]6(O)[C@H](OC(=O)c7ccccc7)[C@@H]5[C@@](OC(C)=O)([C@@H]([C@H](OC)[C@H]23)[C@H]14)[C@@H](O)[C@@H]6OC
[1]
  Activity: Active
A549 [2]
  Activity: Dose-dependent effect
A549 [3]
  Activity: Dose-dependent effect
[4]
  Activity: Dose-dependent effect
A549 [5]
  Activity: Active
[6]
  Activity: Non-toxic
A549 [7]
  Activity: Active
A549 [8]
  Activity: Active
[9]
  Activity: Dose-dependent effect
A549 [10]
  Activity: Active
[11]
  Activity: Dose-dependent effect
A549 [12]
  Activity: Active
[13]
  Activity: Dose-dependent effect
A549 [14]
  Activity: Dose-dependent effect
[15]
  Activity: Dose-dependent effect
[16]
  Activity: Dose-dependent effect
A549 [17]
  Activity: Active
[18]
  Activity: Dose-dependent effect
[19]
  Activity: Active
A549 [20]
  Activity: Active
[21]
  Activity: Toxic
A549 [22]
  Activity: Dose-dependent effect
HeLa
  Activity: Active
HepG2
  Activity: Active
[23]
  Activity: Dose-dependent effect

## CCN1C[C@]2(COC)CC[C@H](OC)[C@]34C1[C@H]([C@H](OC)[C@H]23)[C@]1(OC(C)=O)[C@H]2[C@@H](OC(=O)c3ccccc3)[C@](O)(C[C@H]24)[C@@H](OC)[C@@H]1O
[1]
  Activity: Active
A549 [2]
  Activity: Dose-dependent effect
A549 [3]
  Activity: Dose-dependent effect
[4]
  Activity: Dose-dependent effect
A549 [5]
  Activity: Active
[6]
  Activity: Non-toxic
A549 [7]
  Activity: Active
A549 [8]
  Activity: Active
[9]
  Activity: Dose-dependent effect
A549 [10]
  Activity: Active
[11]
  Activity: Dose-dependent effect
A549 [12]
  Activity: Active
[13]
  Activity: Dose-dependent effect
A549 [14]
  Activity: Dose-dependent effect
[15]
  Activity: Dose-dependent effect
[16]
  Activity: Dose-dependent effect
A549 [17]
  Activity: Active
[18]
  Activity: Dose-dependent effect
[19]
  Activity: Active
A549 [20]
  Activity: Active
[21]
  Activity: Toxic
A549 [22]
  Activity: Dose-dependent effect
HeLa
  Activity: Active
HepG2
  Activity: Active
[23]
  Activity: Dose-dependent effect
